Reference: patent US10131652B2, “Pyrimidinyloxy benzene derivatives as herbicides” (E. I. DU PONT DE NEMOURS AND COMPANY, priority 2014, dated 2018)

How the values were obtained:
Format in all cases: in vivo
[1] = system: lambsquarters (Chenopodium album); experiment: Test D pre-/postemergence plant response; details: Postemergence; for Plant response rating, Lambsquarters: scale 0 to 100, 0 no effect, 100 complete control
In short: (§1)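 Sown seed (loam/sand soil) treated preemergence; emerged plants, 1- to 4-leaf stage and 2 to 18 cm, treated postemergence in peat/vermiculite medium. Greenhouse incubation 13–15 d. Endpoint: visual 0–100 rating versus untreated.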

[2] = system: Italian ryegrass (Lolium multiflorum); experiment: Test D pre-/postemergence plant response; details: Postemergence; for Plant response rating, Ryegrass, Italian: scale 0 to 100, 0 no effect, 100 complete control
In short: as §1

[3] = system: morningglory (Ipomoea coccinea); experiment: Test D pre-/postemergence plant response; details: Postemergence; for Plant response rating, Morningglory: scale 0 to 100, 0 no effect, 100 complete control
In short: as §1

[4] = system: pigweed (Amaranthus retroflexus); experiment: Test D pre-/postemergence plant response; details: Postemergence; for Plant response rating, Pigweed: scale 0 to 100, 0 no effect, 100 complete control
In short: as §1

[5] = system: galium (catchweed bedstraw, Galium aparine); experiment: Test D pre-/postemergence plant response; details: Postemergence; for Plant response rating, Galium: scale 0 to 100, 0 no effect, 100 complete control
In short: as §1

[6] = system: blackgrass (Alopecurus myosuroides); experiment: Test D pre-/postemergence plant response; details: Postemergence; for Blackgrass plant response rating: scale 0 to 100 (0 no effect, 100 complete control); for Plant response rating, Blackgrass: scale 0 to 100, 0 no effect, 100 complete control
In short: as §1

[7] = system: waterhemp (common waterhemp, Amaranthus rudis); experiment: Test D pre-/postemergence plant response; details: Postemergence; for Plant response rating, Waterhemp: scale 0 to 100, 0 no effect, 100 complete control
In short: as §1

corn (Zea mays) [8] = experiment: Test D pre-/postemergence plant response; details: Postemergence; for Corn plant response rating: scale 0 to 100 (0 no effect, 100 complete control); for Plant response rating, Corn: scale 0 to 100, 0 no effect, 100 complete control
In short: as §1

[9] = system: ragweed (common ragweed, Ambrosia elatior); experiment: Test D pre-/postemergence plant response; details: Postemergence; for Plant response rating, Ragweed: scale 0 to 100, 0 no effect, 100 complete control
In short: as §1

[10] = system: barnyardgrass (Echinochloa crus-galli); experiment: Test D pre-/postemergence plant response; details: Postemergence; for Barnyardgrass plant response rating: scale 0 to 100 (0 no effect, 100 complete control); for Plant response rating, Barnyardgrass: scale 0 to 100, 0 no effect, 100 complete control
In short: as §1

[11] = system: giant foxtail (Setaria faberii); experiment: Test D pre-/postemergence plant response; details: Postemergence; for Foxtail, Giant plant response rating: scale 0 to 100 (0 no effect, 100 complete control); for Plant response rating, Foxtail, Giant: scale 0 to 100, 0 no effect, 100 complete control
In short: as §1

[12] = system: pigweed (Amaranthus retroflexus); experiment: Test B pre-/postemergence plant response
In short: (§2)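 Visual injury rating, 0 (no effect) to 100 (complete control), vs untreated controls after ~10 d greenhouse. Pre: directed soil spray after planting in loam/sand. Post: plants 2–10 cm, 1–2 leaf stage. Compound in non-phytotoxic solvent plus surfactant.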

[13] = system: wheat (Triticum aestivum); experiment: Test B pre-/postemergence plant response
In short: as §2

corn (Zea mays) [14] = experiment: Test B pre-/postemergence plant response
In short: as §2

[15] = system: barnyardgrass (Echinochloa crus-galli); experiment: Test B pre-/postemergence plant response
In short: as §2

[16] = system: giant foxtail (Setaria faberii); experiment: Test B pre-/postemergence plant response
In short: as §2

[17] = 31 g ai/ha, scale 0 to 100 (0 no effect, 100 complete control)
[18] = 125 g ai/ha, postemergence, 0 to 100 scale, 0 no effect, 100 complete control
[19] = Postemergence, 500 g ai/ha, 0 to 100 scale (0 no effect, 100 complete control)
[20] = Preemergence, 125 g ai/ha, 0 to 100 scale (0 no effect, 100 complete control)
[21] = Preemergence, 500 g ai/ha, 0 to 100 scale where 0 is no effect and 100 is complete control

FC(F)(F)c1cc(-c2c(Cl)cccc2Oc2ncc(Cl)cn2)no1 [Compound 169]
Lambsquarters plant response rating [1, 17]: 40 | Plant response rating, Lambsquarters ([1]; 62 g ai/ha): 35 | Plant response rating, Lambsquarters ([1]; 125 g ai/ha): 80 | Ryegrass, Italian plant response rating [2, 17]: 0 | Plant response rating, Ryegrass, Italian ([2]; 62 g ai/ha): 5 | Plant response rating, Ryegrass, Italian ([2]; 125 g ai/ha): 15 | Morningglory plant response rating [3, 17]: 15 | Plant response rating, Morningglory ([3]; 62 g ai/ha): 55 | Plant response rating, Morningglory ([3]; 125 g ai/ha): 65 | Pigweed plant response rating [4, 17]: 80 | Plant response rating, Pigweed ([4]; 62 g ai/ha): 80 | Plant response rating, Pigweed ([4]; 125 g ai/ha): 98 | Galium plant response rating [5, 17]: 70 | Plant response rating, Galium ([5]; 62 g ai/ha): 70 | Plant response rating, Galium ([5]; 125 g ai/ha): 75 | Blackgrass plant response rating ([6]; 16 g ai/ha): 0 | Blackgrass plant response rating ([6]; 31 g ai/ha): 0 | Plant response rating, Blackgrass ([6]; 62 g ai/ha): 0 | Plant response rating, Blackgrass ([6]; 125 g ai/ha): 25 | Waterhemp plant response rating [7, 17]: 90 | Plant response rating, Waterhemp ([7]; 62 g ai/ha): 90 | Plant response rating, Waterhemp ([7]; 125 g ai/ha): 90 | Corn plant response rating (corn (Zea mays) [8]; 16 g ai/ha): 0 | Corn plant response rating (corn (Zea mays) [8]; 31 g ai/ha): 5 | Plant response rating, Corn (corn (Zea mays) [8]; 62 g ai/ha): 10 | Plant response rating, Corn (corn (Zea mays) [8]; 125 g ai/ha): 10 | Ragweed plant response rating [9, 17]: 5 | Plant response rating, Ragweed ([9]; 62 g ai/ha): 25 | Plant response rating, Ragweed ([9]; 125 g ai/ha): 35 | Barnyardgrass plant response rating ([10]; 16 g ai/ha): 5 | Barnyardgrass plant response rating ([10]; 31 g ai/ha): 5 | Plant response rating, Barnyardgrass ([10]; 62 g ai/ha): 5 | Plant response rating, Barnyardgrass ([10]; 125 g ai/ha): 5 | Foxtail, Giant plant response rating ([11]; 16 g ai/ha): 0 | Foxtail, Giant plant response rating ([11]; 31 g ai/ha): 5 | Plant response rating, Foxtail, Giant ([11]; 62 g ai/ha): 25 | Plant response rating, Foxtail, Giant ([11]; 125 g ai/ha): 55 | Plant response rating, Pigweed [12, 18]: 100 | Plant response rating, Pigweed [12, 19]: 100 | Pigweed plant response rating [12, 20]: 100 | Plant response rating, Pigweed [12, 21]: 100 | Plant response rating, Wheat [13, 18]: 0 | Plant response rating, Wheat [13, 19]: 0 | Plant response rating, Corn (corn (Zea mays) [14]; [18]): 10 | Plant response rating, Corn (corn (Zea mays) [14]; [19]): 20 | Plant response rating, Barnyardgrass [15, 18]: 10 | Plant response rating, Barnyardgrass [15, 19]: 30 | Barnyardgrass plant response rating [15, 20]: 20 | Plant response rating, Barnyardgrass [15, 21]: 30 | Plant response rating, Foxtail, Giant [16, 18]: 30 | Plant response rating, Foxtail, Giant [16, 19]: 60 | Foxtail, Giant plant response rating [16, 20]: 50 | Plant response rating, Foxtail, Giant [16, 21]: 90
